Measurements from publication PMC5362750, “Discovery of Potent, Selective, and Orally Bioavailable Small-Molecule Modulators of the Mediator Complex-Associated Kinases CDK8 and CDK19” (Journal of Medicinal Chemistry, 2016).

Key:
STK33 = STK33 (Homo sapiens, UniProt Q9BYT3); conditions: 1 µM, ATP at Km
BTK = BTK (Homo sapiens, UniProt Q06187); test: Kinase panel (Millipore); type: biochemical; conditions: 1 µM, ATP at Km
CHK2(I157T) = CHK2(I157T) (Homo sapiens, UniProt O96017, I157T); conditions: 1 µM, ATP at Km
[1] = tested on: sigma (non-selective) (h); conditions: 10 µM, agonist radioligand
ROCK-I = ROCK-I (Homo sapiens, UniProt Q13464); test: Kinase panel (Millipore); type: biochemical; conditions: 1 µM, ATP at Km
[2] = target: T1, choline transporter (CHT1) (h) (Homo sapiens, UniProt Q9GZV3); test: CEREP binding assay; conditions: antagonist radioligand, read-out: % Inhibition of Control Specific Binding
T1 construct: CEREP

SRPK2 = target: T2, SRPK2 (Homo sapiens, UniProt P78362); test: Kinase panel (Millipore); type: biochemical; conditions: 1 µM, ATP at Km
T2 construct: purchased Millipore (KinaseProfiler) kinase panel
T2 sequence (P78362 whole entry): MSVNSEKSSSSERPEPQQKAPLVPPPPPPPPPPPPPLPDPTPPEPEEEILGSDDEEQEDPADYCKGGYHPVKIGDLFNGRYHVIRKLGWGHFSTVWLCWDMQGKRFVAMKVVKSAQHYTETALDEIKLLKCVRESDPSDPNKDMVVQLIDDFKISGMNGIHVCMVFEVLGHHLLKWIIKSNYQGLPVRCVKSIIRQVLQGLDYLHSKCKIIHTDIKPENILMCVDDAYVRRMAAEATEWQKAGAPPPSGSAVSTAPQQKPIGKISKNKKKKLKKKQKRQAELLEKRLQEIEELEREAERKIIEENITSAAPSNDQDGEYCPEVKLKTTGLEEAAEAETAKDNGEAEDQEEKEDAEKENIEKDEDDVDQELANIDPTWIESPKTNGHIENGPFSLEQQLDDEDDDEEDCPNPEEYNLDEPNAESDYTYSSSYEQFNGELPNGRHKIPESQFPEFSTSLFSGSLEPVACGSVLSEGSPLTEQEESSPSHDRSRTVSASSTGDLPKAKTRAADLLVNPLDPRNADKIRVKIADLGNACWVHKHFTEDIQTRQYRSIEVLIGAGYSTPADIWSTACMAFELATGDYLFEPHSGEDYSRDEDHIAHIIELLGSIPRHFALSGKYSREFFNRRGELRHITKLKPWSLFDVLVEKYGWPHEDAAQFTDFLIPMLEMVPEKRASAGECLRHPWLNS

DRAK1 = target: T3, DRAK1 (Homo sapiens, UniProt Q9UEE5); test: Kinase panel (Millipore); type: biochemical; conditions: 1 µM, ATP at Km
T3 construct: purchased Millipore (KinaseProfiler) kinase panel

cMET (D1246H) = cMET (D1246H) (Homo sapiens, UniProt P08581, D1228H); conditions: 1 µM, ATP at Km
FER = target: T4, FER (Homo sapiens, UniProt P16591); test: Kinase panel (Millipore); type: biochemical; conditions: 1 µM, ATP at Km
T4 construct: purchased Millipore (KinaseProfiler) kinase panel

PDK1 = PDK1 (Homo sapiens, UniProt O15530); test: Kinase panel (Millipore); type: biochemical; conditions: 1 µM, ATP at Km
GSK3BETA = GSK3BETA (Homo sapiens, UniProt P49841); test: Kinase panel (Millipore); type: biochemical; conditions: 1 µM, ATP at Km
MC1 = target: T5, MC1 (Mus musculus, UniProt Q01727); test: CEREP binding assay; conditions: agonist radioligand, read-out: % Inhibition of Control Specific Binding
T5 construct: purchased Millipore (KinaseProfiler) kinase panel

PKCGAMMA = PKCGAMMA (Homo sapiens, UniProt P05129); test: Kinase panel (Millipore); type: biochemical; conditions: 1 µM, ATP at Km
CAMKI = CAMKI (Homo sapiens, UniProt Q14012); test: Kinase panel (Millipore); type: biochemical; conditions: 1 µM, ATP at Km
RSE = target: T6, RSE (Homo sapiens, UniProt Q06418); test: Kinase panel (Millipore); type: biochemical; conditions: 1 µM, ATP at Km
T6 construct: purchased Millipore (KinaseProfiler) kinase panel

A2B (h) = A2B (h) (Homo sapiens, UniProt P29275); test: biochemical; conditions: read-out: % Inhibition of Control Specific Binding
[3] = target: GABAA1 (h) (alpha 1,beta 2,gamma 2) (Homo sapiens, UniProt P14867+P47870); test: biochemical; conditions: read-out: % Inhibition of Control Specific Binding
GABAA1 (h) (alpha 1,beta 2,gamma 2), sequence (P14867 28-456): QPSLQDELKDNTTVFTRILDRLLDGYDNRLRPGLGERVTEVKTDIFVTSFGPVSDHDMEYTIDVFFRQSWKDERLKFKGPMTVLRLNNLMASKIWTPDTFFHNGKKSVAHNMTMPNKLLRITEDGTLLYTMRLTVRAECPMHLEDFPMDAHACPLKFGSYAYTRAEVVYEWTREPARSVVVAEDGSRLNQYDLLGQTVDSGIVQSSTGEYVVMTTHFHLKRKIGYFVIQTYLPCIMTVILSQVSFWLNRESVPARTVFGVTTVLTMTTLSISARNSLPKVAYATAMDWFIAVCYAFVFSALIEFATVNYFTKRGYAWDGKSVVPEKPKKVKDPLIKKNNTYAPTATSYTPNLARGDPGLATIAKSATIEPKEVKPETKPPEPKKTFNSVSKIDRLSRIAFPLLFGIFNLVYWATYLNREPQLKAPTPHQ
GABAA1 (h) (alpha 1,beta 2,gamma 2), sequence (P47870 25-512 limits assumed): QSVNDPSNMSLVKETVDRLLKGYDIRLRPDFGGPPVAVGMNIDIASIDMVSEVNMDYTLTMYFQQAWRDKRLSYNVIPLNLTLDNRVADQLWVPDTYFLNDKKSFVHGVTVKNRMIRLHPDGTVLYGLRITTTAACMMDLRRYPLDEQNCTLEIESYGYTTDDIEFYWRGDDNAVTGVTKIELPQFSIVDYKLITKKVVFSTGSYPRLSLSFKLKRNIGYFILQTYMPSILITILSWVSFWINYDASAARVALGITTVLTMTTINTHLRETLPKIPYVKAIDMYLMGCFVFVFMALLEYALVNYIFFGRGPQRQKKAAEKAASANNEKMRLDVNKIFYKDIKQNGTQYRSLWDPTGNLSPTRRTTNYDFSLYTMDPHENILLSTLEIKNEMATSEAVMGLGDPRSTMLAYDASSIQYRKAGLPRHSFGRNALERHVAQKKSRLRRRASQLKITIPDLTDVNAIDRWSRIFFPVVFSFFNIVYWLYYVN
GABAA1 (h) (alpha 1,beta 2,gamma 2), sequence (P18507 40-475 partner): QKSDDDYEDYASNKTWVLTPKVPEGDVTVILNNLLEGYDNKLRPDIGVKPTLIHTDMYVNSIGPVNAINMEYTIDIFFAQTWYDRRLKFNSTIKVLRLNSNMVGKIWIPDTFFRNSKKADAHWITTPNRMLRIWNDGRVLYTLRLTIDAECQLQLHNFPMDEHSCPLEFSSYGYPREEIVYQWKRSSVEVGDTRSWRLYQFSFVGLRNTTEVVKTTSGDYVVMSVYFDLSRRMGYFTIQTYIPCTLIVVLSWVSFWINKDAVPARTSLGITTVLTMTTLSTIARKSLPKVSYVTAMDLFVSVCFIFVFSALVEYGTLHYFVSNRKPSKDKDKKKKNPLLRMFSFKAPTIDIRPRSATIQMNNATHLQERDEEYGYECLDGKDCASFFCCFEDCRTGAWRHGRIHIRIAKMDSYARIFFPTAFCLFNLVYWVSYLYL

MST1 = MST1 (Homo sapiens, UniProt Q13043); test: Kinase panel (Millipore); type: biochemical; conditions: 1 µM, ATP at Km
LYN = LYN (Homo sapiens, UniProt P07948); test: Kinase panel (Millipore); type: biochemical; conditions: 1 µM, ATP at Km
MEK1 = MEK1 (Homo sapiens, UniProt Q02750); test: Kinase panel (Millipore); type: biochemical; conditions: 1 µM, ATP at Km
MEK1, sequence (Q02750 whole entry): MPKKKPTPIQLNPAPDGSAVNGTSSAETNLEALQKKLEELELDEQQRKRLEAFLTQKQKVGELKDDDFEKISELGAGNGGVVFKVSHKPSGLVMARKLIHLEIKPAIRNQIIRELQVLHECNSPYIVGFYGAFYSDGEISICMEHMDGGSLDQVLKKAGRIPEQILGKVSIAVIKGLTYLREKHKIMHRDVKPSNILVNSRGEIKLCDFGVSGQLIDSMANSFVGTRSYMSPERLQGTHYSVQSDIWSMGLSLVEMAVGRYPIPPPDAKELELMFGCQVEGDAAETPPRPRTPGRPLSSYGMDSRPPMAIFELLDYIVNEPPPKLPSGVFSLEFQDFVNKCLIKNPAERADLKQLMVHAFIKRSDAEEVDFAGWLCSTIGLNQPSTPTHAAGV

MT3 (ML2) = conditions: 10 µM, agonist radioligand
PDGFRBETA = target: T7, PDGFRBETA (Homo sapiens, UniProt P09619); test: Kinase panel (Millipore); type: biochemical; conditions: 1 µM, ATP at Km
T7 construct: purchased Millipore (KinaseProfiler) kinase panel

MKK7BETA = target: T8, MKK7BETA (Homo sapiens, UniProt O14733); test: Kinase panel (Millipore); type: biochemical; conditions: 1 µM, ATP at Km
T8 construct: purchased Millipore (KinaseProfiler) kinase panel
T8 sequence (O14733 whole entry): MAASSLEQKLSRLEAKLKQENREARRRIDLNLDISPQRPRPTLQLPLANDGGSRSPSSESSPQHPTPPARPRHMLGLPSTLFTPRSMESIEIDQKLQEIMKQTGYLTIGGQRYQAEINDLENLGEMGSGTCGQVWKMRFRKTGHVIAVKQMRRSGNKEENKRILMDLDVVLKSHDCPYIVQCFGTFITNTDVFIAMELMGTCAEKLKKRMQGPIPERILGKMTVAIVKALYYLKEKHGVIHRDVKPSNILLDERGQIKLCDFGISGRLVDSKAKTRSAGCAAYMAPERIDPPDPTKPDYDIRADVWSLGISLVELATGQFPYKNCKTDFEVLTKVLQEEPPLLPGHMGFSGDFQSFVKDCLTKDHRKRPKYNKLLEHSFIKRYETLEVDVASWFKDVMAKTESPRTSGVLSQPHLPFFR

CKIT(V560G) = CKIT(V560G) (Homo sapiens, UniProt P10721, V560G); conditions: 1 µM, ATP at Km
CKIT(V560G), sequence (P10721 544-976 V560G limits assumed): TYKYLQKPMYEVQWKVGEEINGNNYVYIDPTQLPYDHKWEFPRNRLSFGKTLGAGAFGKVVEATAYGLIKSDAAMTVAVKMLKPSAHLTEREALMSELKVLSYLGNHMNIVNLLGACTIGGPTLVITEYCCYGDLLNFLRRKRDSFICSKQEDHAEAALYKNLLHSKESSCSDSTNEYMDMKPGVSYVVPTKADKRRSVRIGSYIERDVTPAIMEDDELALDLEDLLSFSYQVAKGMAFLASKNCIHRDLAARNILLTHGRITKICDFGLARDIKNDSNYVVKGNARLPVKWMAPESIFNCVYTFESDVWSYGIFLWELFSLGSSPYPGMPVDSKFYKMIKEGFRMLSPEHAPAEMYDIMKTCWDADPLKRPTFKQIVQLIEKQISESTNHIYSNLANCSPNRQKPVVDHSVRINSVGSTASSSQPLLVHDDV

CAMKIDELTA = CAMKIDELTA (Homo sapiens, UniProt Q8IU85); test: Kinase panel (Millipore); type: biochemical; conditions: 1 µM, ATP at Km
FLT1 = target: T9, FLT1 (Homo sapiens, UniProt P17948); test: Kinase panel (Millipore); type: biochemical; conditions: 1 µM, ATP at Km
T9 construct: purchased Millipore (KinaseProfiler) kinase panel

AR (h) = conditions: 10 µM, agonist radioligand
PKBALPHA = PKBALPHA (Homo sapiens, UniProt P31749); test: Kinase panel (Millipore); type: biochemical; conditions: 1 µM, ATP at Km
GABA transporter = conditions: 10 µM, antagonist radioligand
MNK2 = target: T10, MNK2 (Homo sapiens, UniProt Q9HBH9); test: Kinase panel (Millipore); type: biochemical; conditions: 1 µM, ATP at Km
T10 construct: purchased Millipore (KinaseProfiler) kinase panel

alpha 2A (h) = alpha 2A (h) (Homo sapiens, UniProt P08913); test: biochemical; conditions: read-out: % Inhibition of Control Specific Binding
SGK = target: T11, SGK (Homo sapiens, UniProt O00141); test: Kinase panel (Millipore); type: biochemical; conditions: 1 µM, ATP at Km
T11 construct: purchased Millipore (KinaseProfiler) kinase panel

FLT3 = target: T12, FLT3 (Homo sapiens, UniProt P36888); test: Kinase panel (Millipore); type: biochemical; conditions: 1 µM, ATP at Km
T12 construct: purchased Millipore (KinaseProfiler) kinase panel

PAK5 = PAK5 (Homo sapiens, UniProt Q9P286); test: Kinase panel (Millipore); type: biochemical; conditions: 1 µM, ATP at Km
PDGFRALPHA = target: T13, PDGFRALPHA (Homo sapiens, UniProt P16234); test: Kinase panel (Millipore); type: biochemical; conditions: 1 µM, ATP at Km
T13 construct: purchased Millipore (KinaseProfiler) kinase panel

CK2ALPHA2 = CK2ALPHA2 (Homo sapiens, UniProt P19784); conditions: 1 µM, ATP at Km
ETB (h) = target: T14, ETB (h) (Homo sapiens, UniProt P24530); test: CEREP binding assay; conditions: agonist radioligand, read-out: % Inhibition of Control Specific Binding
T14 construct: purchased Millipore (KinaseProfiler) kinase panel
T14 sequence (P24530 27-442): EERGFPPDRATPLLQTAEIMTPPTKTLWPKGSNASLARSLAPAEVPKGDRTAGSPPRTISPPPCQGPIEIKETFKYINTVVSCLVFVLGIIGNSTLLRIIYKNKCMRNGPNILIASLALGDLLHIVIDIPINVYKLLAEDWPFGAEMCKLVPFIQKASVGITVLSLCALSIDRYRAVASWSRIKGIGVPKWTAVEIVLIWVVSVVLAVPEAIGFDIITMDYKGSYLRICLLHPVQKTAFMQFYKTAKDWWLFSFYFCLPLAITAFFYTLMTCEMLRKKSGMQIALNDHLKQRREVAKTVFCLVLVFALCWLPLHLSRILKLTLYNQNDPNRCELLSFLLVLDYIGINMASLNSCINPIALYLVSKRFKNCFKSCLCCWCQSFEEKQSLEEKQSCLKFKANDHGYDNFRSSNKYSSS

IRR = target: T15, IRR (Homo sapiens, UniProt P14616); test: Kinase panel (Millipore); type: biochemical; conditions: 1 µM, ATP at Km
T15 construct: purchased Millipore (KinaseProfiler) kinase panel

CK1GAMMA2 = CK1GAMMA2 (Homo sapiens, UniProt P78368); test: Kinase panel (Millipore); type: biochemical; conditions: 1 µM, ATP at Km
ACK1 = target: T16, ACK1 (Homo sapiens, UniProt Q07912); test: Kinase panel (Millipore); type: biochemical; conditions: 1 µM, ATP at Km
T16 construct: purchased Millipore (KinaseProfiler) kinase panel

CAMKIIGAMMA = CAMKIIGAMMA (Homo sapiens, UniProt Q13555); test: Kinase panel (Millipore); type: biochemical; conditions: 1 µM, ATP at Km
SNK = target: T17, SNK (Homo sapiens, UniProt Q9NYY3); test: Kinase panel (Millipore); type: biochemical; conditions: 1 µM, ATP at Km
T17 construct: purchased Millipore (KinaseProfiler) kinase panel
T17 sequence (Q9NYY3 whole entry): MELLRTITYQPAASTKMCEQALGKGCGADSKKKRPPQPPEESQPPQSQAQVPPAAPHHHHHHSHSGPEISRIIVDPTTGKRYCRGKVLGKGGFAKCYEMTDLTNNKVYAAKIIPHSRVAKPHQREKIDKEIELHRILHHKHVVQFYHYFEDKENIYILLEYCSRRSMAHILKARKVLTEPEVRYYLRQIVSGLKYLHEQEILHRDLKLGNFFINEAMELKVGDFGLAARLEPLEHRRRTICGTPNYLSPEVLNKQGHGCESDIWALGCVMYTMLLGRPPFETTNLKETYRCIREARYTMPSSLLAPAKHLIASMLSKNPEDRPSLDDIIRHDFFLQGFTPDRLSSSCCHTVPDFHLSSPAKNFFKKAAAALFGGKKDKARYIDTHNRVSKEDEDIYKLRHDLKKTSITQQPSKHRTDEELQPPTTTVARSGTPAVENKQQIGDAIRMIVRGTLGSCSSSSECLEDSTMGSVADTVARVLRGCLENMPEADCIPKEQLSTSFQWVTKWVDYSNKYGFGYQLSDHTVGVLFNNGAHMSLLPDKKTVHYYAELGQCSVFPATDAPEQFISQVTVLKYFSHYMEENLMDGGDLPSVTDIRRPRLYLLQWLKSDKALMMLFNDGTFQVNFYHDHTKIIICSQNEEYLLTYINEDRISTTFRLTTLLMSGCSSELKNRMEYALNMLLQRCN

STK33, sequence (Q9BYT3 whole entry): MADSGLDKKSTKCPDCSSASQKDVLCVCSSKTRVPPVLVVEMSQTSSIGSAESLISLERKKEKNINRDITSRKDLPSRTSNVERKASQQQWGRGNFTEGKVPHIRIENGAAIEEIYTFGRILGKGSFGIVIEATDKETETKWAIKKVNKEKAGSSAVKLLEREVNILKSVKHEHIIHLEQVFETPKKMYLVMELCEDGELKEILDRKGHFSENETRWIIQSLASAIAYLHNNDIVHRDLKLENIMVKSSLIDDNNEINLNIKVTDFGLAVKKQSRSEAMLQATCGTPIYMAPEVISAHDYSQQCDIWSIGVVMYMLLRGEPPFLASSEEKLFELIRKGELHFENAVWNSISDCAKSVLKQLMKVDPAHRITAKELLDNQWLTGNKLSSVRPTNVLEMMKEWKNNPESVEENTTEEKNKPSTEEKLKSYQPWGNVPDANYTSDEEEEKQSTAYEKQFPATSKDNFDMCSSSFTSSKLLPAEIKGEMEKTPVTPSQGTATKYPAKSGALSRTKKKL

Structure (SMILES): Cn1ncc2cc(-c3cnc(N)c(Cl)c3N3CCC4(CCNC4=O)CC3)ccc21 [Compound 109, 8-(2-Amino-3-chloro-5-(1-methyl-1H-indazol-5-yl)pyridin-4-yl)-2,8-diazaspiro[4.5]decan-1-one]
- % effect (STK33): 0%
- % effect (BTK): 6%
- % effect (CHK2(I157T)): -5%
- % Inhibition of Control Specific Binding [1]: 12%
- % effect (ROCK-I): 6%
- inhibition at 10 µM [2]: 4%
- % effect (SRPK2): 4%
- % effect (DRAK1): 1%
- % effect (cMET (D1246H)): -8%
- % effect (FER): 15%
- % effect (PDK1): 1%
- % effect (GSK3BETA): -11%
- inhibition at 10 µM (MC1): -8%
- % effect (PKCGAMMA): -6%
- % effect (CAMKI): -3%
- % effect (RSE): 1%
- inhibition at 10 µM (A2B (h)): -7%
- inhibition at 10 µM [3]: -12%
- % effect (MST1): 4%
- % effect (LYN): -3%
- % effect (MEK1): -13%
- % Inhibition of Control Specific Binding (MT3 (ML2)): 71%
- % effect (PDGFRBETA): -9%
- % effect (MKK7BETA): -15%
- % effect (CKIT(V560G)): -5%
- % effect (CAMKIDELTA): 8%
- % effect (FLT1): -8%
- % Inhibition of Control Specific Binding (AR (h)): -2%
- % effect (PKBALPHA): 3%
- % Inhibition of Control Specific Binding (GABA transporter): 3%
- % effect (MNK2): -3%
- inhibition at 10 µM (alpha 2A (h)): 11%
- % effect (SGK): 0%
- % effect (FLT3): 7%
- % effect (PAK5): -11%
- % effect (PDGFRALPHA): 10%
- % effect (CK2ALPHA2): -13%
- inhibition at 10 µM (ETB (h)): -23%
- % effect (IRR): 5%
- % effect (CK1GAMMA2): 5%
- % effect (ACK1): -11%
- % effect (CAMKIIGAMMA): 8%
- % effect (SNK): 11%
